How the values were obtained:
Format in all cases: cell-based
splenic murine T cells = assay: Murine T cells stimulated with αCD3/αCD28 in presence of UA; conditions: ICG001 10 μM plus UA 50 μM, 48 h
Protocol: Splenic murine T cells were isolated from mice aged 6-20 weeks by negative selection with EasySep mouse T cell isolation kit (Stem cell) according to the manufacturer's instructions. To monitor T cell proliferation, purified T cells were loaded with CellTrace Violet (C34557 ThermoFisher Scientific). T cell activation was initiated using αCD3/CD28 activation beads (11456D; ThermoFisher Scientific) at a ratio of 25 μl dynabeads per 0.5×106 T-cells. Cells were activated with 25-50 μM Urolithin A (Tocris) or DMSO in T cell activation Medium (RPMI (ThermoFisher Scientific) 10% FBS (South America origin), 10 mM Hepes (Sigma), 1×Non-Essential Amino Acid, 1 mM Sodium Pyruvate, 50 µM β-Mercaptoethanol, 100 U/mL penicillin, 100 μg/mL streptomycin and 2 mM Glutamax (ThermoFisher Scientific) for the indicated durations. In selected experiments, cells were stimulated in the presence of inhibitors, namely TCFli (ICG-001; SelleckChem; […]) and PGC-lai (SR-18292, Sigma-Aldrich; […]). For subsequent analysis, activating beads were magnetically removed prior antibody staining. For human T cells, peripheral blood mononuclear cells were purified with a Ficoll-Paque (GE healthcare) gradient. T cells were enriched with EasySep Human T Cell Isolation Kit (StemCell) and activated with dynabead Human T-Activator CD3/CD28 for T Cell Expansion and Activation Kit (11131D; ThermoFisher Scientific), similar to murine T cell stimulation. When the subsequent activation and expansion of CAR T cells was studied, plates were coated with 1 μg/mL anti-human CD3 (αCD3; clone OKT3) and thawed PBMC were cultivated with […] anti-human CD28 (αCD28; 15E8, both Miltenyi Biotec) containing media for three days. (NutriT media (4Cell® Nutri-T media (Sartorius) containing 0.5% penicillin/streptomycin) supplemented with IL-7 (25 U/mL) and IL-15 […] (all Miltenyi Biotec)).
Tumors were minced and digested with Tumor & Tissue Dissociation Reagent (BD Horizon) for 30 min. The remaining organ pieces were filtered through a 70 µm cell strainer. Cells were then washed with PBS 1% BSA and 2 mM EDTA. Immune cells were enriched on a 30%/40%/75% Percoll gradient after a 1700 rpm 17 min centrifugation. Then, tumor immune filtrates or activated T cells were stained with Fixable Viability Dye-eF780 (65-0865-14; eBioscience), αCD45-FITC (30-F11; 11-0451-85; eBioscience), αCD11b-BV650 (M1/70; 56340; BD) α-CD11c-BV785 (HL3; 563735; BD), aLy6G-BV605 (53-6.7; 563005; BD), aLy6C-AF700 (HK1.4; 128024; Biolegend), aF4/80-PE (BM8; 12-4801-82, eBioscience), aPD-L1-PECy7 (MIH5; 25-5982-80, eBioscience); or with Fixable Viability Dye-eF780 (ebioscience), αCD45-BV786 (30-F11; 564225; BD), αCD4-BUV496 (GK1.5; 564667; BD), αCD8-BV605 (100744; Biolegend), aPD1-APC (J43; 17-9985-82; eBioscience), aTIM-3-PECy7 (RMT3-23; 119715; Biolegend), aCTLA4-PE (UC10-4B9; 106305; Biolegend) and aLag3-BV421 (C9B7W; 125221, Biolegend); or with Fixable Viability Dye-eF780 (eBioscience), αCD4-FITC (H129.19; 553650; BD), αCD8-APC (53-6.7; 17-0081-83; eBioscience), αCD44-AF400 (IM7; 103026; Biolegend), αCD62L-BV785 (MEL-14; 104440; Biolegend), αSca-1-PerCP-Cy5.5 (D7; 45-5981-82; eBioscience), αCD95-PE (Jo2; 554258; BD); or with Fixable Viability Dye-eF780 (eBioscience), αCD8-BV650 (53-6.7; 563234; BD), αCD4-BUV496 (GK1.5; 564667; BD), αCD127-APC (A7R34; 17-1271-82; eBioscience), αCD95-FITC (SA367H8;152605; Biolegend), αCD44-AF400 (IM7; 103026; Biolegend), αCD62L-BV785 (MEL-14; 104440; Biolegend), αSca-1-PerCP-Cy5.5 (D7; 45-5981-82; eBioscience) followed by intracellular staining of aTCF1-PE (S33-966; 564217; BD), or PGC-1α (sc-518025; D-5; santa cruz), or aCyclinD1 (MA5-28534, DCS-6; Invitrogen) with transcription factor buffer set kit (BD Biosciences). To study cytokine expression, tumor immune infiltrates were stimulated ex vivo with 20 ng/mL PMA and […] Ionomycin (Sigma) for 3 h in T cell activation medium with Brefeldin A (Biolegend). […]

[1] = test system: cortical neurons and microglial cells injured with Aβ1-42; assay: Rat primary culture of cortical neurons and microglial cells injured with Aβ1-42
Protocol: Pregnant female rat (Wistar) of 15 days of gestation were killed using a deep anesthesia with CO2 chamber and a cervical dislocation. Fetuses were collected and immediately placed in ice-cold L15 Leibovitz medium with a 2% penicillin (10,000 U/mL) and streptomycin (10 mg/mL) solution (PS) and 1% bovine serum albumin (BSA). Cortex were specifically dissected and then were treated for 20 min at 37° C. with a trypsin-EDTA solution at a final concentration of 0.05% trypsin and 0.02% EDTA. The dissociation was stopped by addition of Dulbecco's modified Eagle's medium (DMEM) with 4.5 g/L of glucose, containing DNAse I grade II (final concentration 0.5 mg/mL) and 10% fetal calf serum (FCS). Cells were mechanically dissociated by three forced passages through the tip of a 10-mL pipette. Cells were then centrifuged at 515×g for 10 min at 4° C. The supernatant was discarded, and the pellet was resuspended in a defined culture medium consisting of Neurobasal medium with a 2% solution of B27 supplement, 2 mmol/liter of L-glutamine, 2% of PS solution, 10 ng/mL of brain-derived neurotrophic factor (BDNF), 2% of heat-inactivated horse serum, 2% of heat-inactivated FCS, 1 g/L of glucose, 1 mM of sodium pyruvate, and 100 μM of non-essential amino acids. The presence of serum in the medium allows the growth of the microglial cells. Viable cells were counted in a Neubauer cytometer, using the trypan blue exclusion test.
The cells were seeded at a density of 45 000 per well in 96-well plate precoated with poly-L-lysine and were cultured at 37° C. in an air (95%)—CO2 (5%) incubator. The medium was changed every 2 days.
On day 11 of culture, the compounds were dissolved in the appropriate vehicle and pre-incubated with the primary cortical neurons for one hour (1 h), before Aβ1-42 exposure.
On day 11 of culture, the cortical neurons were injured with the AP 1-42 peptide. AP 1-42 peptide was dissolved in the defined culture medium mentioned above, at an initial concentration of 20 μM. The solution was gently agitated for 3 days at 37° C. in the dark and immediately used after being properly diluted in culture medium to the concentration used (5 μM, 0.5 μM oligomers precisely evaluated by automatic WB). The AP 1-42 solution was applied on the culture at […] (0.5 μM oligomers, AβO), in presence of the compound, for 72 hours.
72 hours after the application of Aβ, the cell culture supernatant was removed. Cells were then washed with phosphate-buffered saline (PBS) and fixed with a cold solution of ethanol (95%) and acetic acid (5%) for 5 min at −20° C. After two washing steps with cold PBS, cells permeabilized and unspecific binding sites were blocked with a solution of PBS containing 0.1% of saponin and 1% of FCS, for 15 min at RT. Cells were incubated for 2 hours with: • a) Monoclonal anti-MAP2 antibody produced in mouse at dilution of 1/400 in PBS containing 1% FCS, 0.1% saponin, for 2 hours at room temperature. • b) Rabbit polyclonal antibody anti-SIRP alpha/CD172a (OX-41) at dilution of 1/400 in PBS containing 1% fetal calf serum and 0.1% of saponin (this antibody stains specifically the microglia and will allow to evaluate the activation of the microglial cells).
For each condition, 30 pictures (representative of the whole well area) were automatically taken using ImageXpress® (Molecular Devices) at 20× magnification using the same acquisition parameters. From images, the analyses were automatically performed by MetaXpress® (Molecular Devices). The following read-outs were measured: • Total neuron survival (number of MAP-2(+) neurons), • Total length of neurite network of MAP-2(+) neurons (in μm) • Total area of activated microglia (area of OX-41 signal, in μm^2)
All values are expressed as mean+/−SEM (standard error of the mean). Statistical analysis was performed by one-way ANOVA followed by Fisher's LSD test, with GraphPad Prism. p<0.05 was considered significant.

mouse T lymphocytes = assay: Mitochondrial content (Mitotracker positive cells) in mouse T lymphocytes; conditions: 2 μM, 72 h
Protocol: Splenic murine T cells were isolated from mice aged 6-20 weeks by negative selection with EasySep mouse T cell isolation kit (Stem cell) according to the manufacturer's instructions. T cell activation was initiated using CD3/CD28 activation beads (11456D; ThermoFisher Scientific) at a ratio of 25 μl dynabeads per 0.5×10^6 T-cells. Cells were activated with test compounds at 2 μM or DMSO in T cell activation Medium (RPMI (ThermoFisher Scientific) 10% FBS (South America origin), 10 mM Hepes (Sigma), 1× Non-Essential Amino Acid, 1 mM Sodium Pyruvate, 50 μM β-Mercaptoethanol, 100 U/ml penicillin, 100 μg/ml streptomycin and 2 mM Glutamax (ThermoFisher Scientific) for 72 h. For subsequent analysis, activating beads were magnetically removed prior staining.
For flow cytometric analysis of mitochondria 500 μl of Mitotracker Red (200 nM; ThermoFisher) was applied followed by surface staining.
Cell doublets and cells debris were excluded from the analysis by gating FSC-A vs FSC-H followed by SSC-A vs SSC-H dot plots and FSC-A vs SSC-A dot plots, respectively. eFluor 780 highly positive cells, i.e, dead cells, were gated out of the analysis. Data was acquired on Canto II (BD), Fortessa (BD) and Aurora (Cytek) cytometers and analyzed with FlowJo.

[2] = 125 and 250 nM, Aβ1-42 72 hours

Compound | UA-induced TSCM formation in presence of TCF-1 inhibitor (splenic murine T cells) | microglial activation (conclusion) [1] | neuroprotection in the inflammatory in vitro model (conclusion) [1] | microglial activation (OX-41) [1, 2] | neurite network of cortical neurons (MAP-2) [1, 2] | survival of cortical neurons (MAP-2) [1, 2] | increase in the percentage of Mitotracker positive cells vs DMSO (mouse T lymphocytes) | percentage of Mitotracker positive cells (mouse T lymphocytes; DMSO 44%)
O=C1[C@H](Cc2ccc(O)cc2)N2C(=O)CCN(C(=O)NCc3ccccc3)[C@H]2CN1Cc1cccc2ccccc12 [ICG001] | abrogated |  |  |  |  |  |  | 
Cc1cc2c(cc1O)OC(C)(C)c1cc(O)c(C)cc1-2 [117A, 2,6,6,9-tetramethyl-6H-benzo[c]chromene-3,8-diol] |  | significantly reduce | neuroprotective | decrease | significantly protect | significantly protect | 30% | 57.3%

Reference: patent US20240139149A1, “THERAPEUTIC USES OF UROLITHIN DERIVATIVES” (Vandria SA, priority 2022, published 2024)
